Some test systems named below: SN12C renal; MCF7 breast; HOP-62 NSCLC; NCI-H226 lung; SF-268 CNS; SF-539 CNS; UO-31 renal; EKVX NSCLC; SK-MEL-2 melanoma; M19-MEL melanoma; KM20L2 colon.
Assay in all cases: NCI anticancer screen, dose series, 48 h

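In this assay, cells in 96-well plates receive the compound at five concentrations for 48 hours. Endpoints are linearly interpolated between the surrounding concentrations. Here, GI50 denotes the concentration required for 50% inhibition of growth. TGI: concentration producing complete growth inhibition.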 Where only a bound is given, the exact number is not on record here.

In the case of `C/C=C(/C)C(=O)OC1CC(C)[C@H]2CC(=O)C(C)=C2CC1C(C)(C)OC(C)=O` (stereo partly specified), the TGI was > 100 µM with SN12C renal; > 100 µM with MCF7 breast; 95 µM in the test with HOP-62 NSCLC; > 100 µM with NCI-H226 lung; > 100 µM in the test with SF-268 CNS; 41 µM with SF-539 CNS. The TGI in the test on UO-31 renal was 83.9 µM; in the test with EKVX NSCLC it was > 100 µM; with SK-MEL-2 melanoma, 27 µM.

Consider `OCCOCn1nncc1Cn1ncc2c(SCc3ccccc3)ncnc21`, for which the TGI in the test with SN12C renal, with MCF7 breast, in the test with HOP-62 NSCLC, in the test with NCI-H226 lung, in the test with SF-268 CNS and in the test on SF-539 CNS was > 100 µM each time. The TGI in the test with UO-31 renal, in the test with EKVX NSCLC and in the test with SK-MEL-2 melanoma was > 100 µM in each case.

For the compound `Cc1cc2c(O)c(c1)CN(CC(=O)O)Cc1cc(C)cc(c1O)CN(CC(=O)O)Cc1cc(C)cc(c1O)CN(CC(=O)O)C2`, the TGI in the test with SN12C renal, in the test with MCF7 breast, with HOP-62 NSCLC, in the test on NCI-H226 lung, with SF-268 CNS and with SF-539 CNS was > 100 µM throughout. Moreover, the TGI in the test with UO-31 renal, with EKVX NSCLC and with SK-MEL-2 melanoma was > 100 µM in each case.

With `NCCCCNCCCNC(=O)c1nc(-c2nc(CCN)sc2Cl)sc1Cl`, the TGI in the test with M19-MEL melanoma is > 100 µM; in the test with SN12C renal, > 100 µM; with KM20L2 colon it was > 100 µM; with HOP-62 NSCLC, > 100 µM; with NCI-H226 lung, > 100 µM; with SF-268 CNS, 25.4 µM. Moreover, the TGI in the test on SF-539 CNS, in the test on UO-31 renal and in the test with EKVX NSCLC was > 100 µM each time.

For the compound `CC[C@H](Nc1nc(C)nc(N)c1C#N)c1nc2cccc(NCc3ccc(C(=O)NO)cc3)c2c(=O)n1-c1ccccc1`, the GI50 with SN12C renal was 1650 nM; in the test on MCF7 breast, 2070 nM; with HOP-62 NSCLC it was 1490 nM; in the test on NCI-H226 lung, 1720 nM; in the test with SF-268 CNS it was 1630 nM; in the test with SF-539 CNS, 1590 nM. Besides, the GI50 is 1210 nM in the test with UO-31 renal, 1560 nM with EKVX NSCLC and 2070 nM with SK-MEL-2 melanoma. For the same compound, the TGI in the test with SN12C renal came to 3.92 µM; in the test with MCF7 breast, 5.89 µM; in the test on HOP-62 NSCLC, 3.09 µM; in the test on NCI-H226 lung, 4.44 µM; in the test on SF-268 CNS, 3.53 µM; with SF-539 CNS, 3.02 µM. In addition, the results for the TGI in the test with UO-31 renal, in the test on EKVX NSCLC and with SK-MEL-2 melanoma were 2.47 µM, 3.21 µM and 5.51 µM, respectively.

Turning to `CCn1c2ccc(C(=O)CCCN3CCCCC3)cc2c2cc(C(=O)CCCN3CCCCC3)ccc21`, the TGI with SN12C renal came out at 20 µM; with MCF7 breast, 4.94 µM; in the test with HOP-62 NSCLC, 18.2 µM; in the test with NCI-H226 lung, 27.2 µM; in the test on SF-268 CNS, 18.6 µM; in the test on SF-539 CNS, 3.37 µM. In addition, the TGI with UO-31 renal was found to be 18.6 µM; in the test with EKVX NSCLC it was 15.8 µM; in the test with SK-MEL-2 melanoma, 3.52 µM.

Regarding `Cc1cc2ncn(C3CCCCO3)c2cc1C` (stereo unspecified), the TGI in the test on SN12C renal, in the test with MCF7 breast, with HOP-62 NSCLC, in the test with NCI-H226 lung, in the test on SF-268 CNS and in the test with SF-539 CNS was > 100 µM throughout. In addition, the TGI in the test on UO-31 renal is 75.1 µM; in the test with EKVX NSCLC it was > 100 µM; with SK-MEL-2 melanoma it was > 100 µM.

As for `O=C1C=CC=C/C1=C1\N=C(c2ccccc2OCC(=O)c2ccccc2)SS1`, the TGI in the test with SN12C renal, in the test with MCF7 breast, in the test with HOP-62 NSCLC, in the test with NCI-H226 lung, in the test with SF-268 CNS and in the test with SF-539 CNS was > 100 µM throughout. Further, the TGI in the test with UO-31 renal, with EKVX NSCLC and in the test on SK-MEL-2 melanoma was > 100 µM each time.

On to `Nc1nc(Cl)cc(NCC2(O)CC2)n1`, for which the TGI in the test on SN12C renal, in the test on MCF7 breast, with HOP-62 NSCLC, in the test with NCI-H226 lung, with SF-268 CNS and in the test on SF-539 CNS was > 100 µM throughout. Moreover, the TGI in the test on UO-31 renal, with EKVX NSCLC and in the test with SK-MEL-2 melanoma was > 100 µM in each case.

As for `CCCCSc1nsc(N(C(=O)c2ccccc2)C(=O)c2ccccc2)n1`, the TGI in the test with SN12C renal was > 100 µM; with MCF7 breast it was > 100 µM; in the test with HOP-62 NSCLC, > 100 µM; in the test on NCI-H226 lung, 93.9 µM; in the test with SF-268 CNS, > 100 µM; in the test with SF-539 CNS, 64.3 µM. For the same compound, the TGI in the test with UO-31 renal turned out to be 39.5 µM; with EKVX NSCLC, 77.4 µM; in the test on SK-MEL-2 melanoma, 71.1 µM.

`CC1C(NNc2ccccc2)Oc2cc3c(cc2C1c1ccccc1O)OCO3` (stereo unspecified): the TGI in the test on SN12C renal was 20.1 µM; in the test with MCF7 breast, 16.8 µM; with HOP-62 NSCLC it was 16.2 µM; in the test with NCI-H226 lung, 33.2 µM; in the test with SF-268 CNS, 32.6 µM; with SF-539 CNS, 4.56 µM. Also, the TGI came out at 11 µM with UO-31 renal, 23.3 µM in the test on EKVX NSCLC and 25.6 µM with SK-MEL-2 melanoma.

Take `O=C(OCCN=c1c2ccccc2ccc2ccccc12)c1ccccc1`: the TGI in the test on SN12C renal, in the test on MCF7 breast, in the test with HOP-62 NSCLC, in the test with NCI-H226 lung, with SF-268 CNS and in the test on SF-539 CNS was > 100 µM in each case. Also, the TGI in the test with UO-31 renal, in the test on EKVX NSCLC and with SK-MEL-2 melanoma was > 100 µM throughout.

On to `O=c1[nH]c2nc3ccccc3nc2[nH]c1=O`, for which the TGI with SN12C renal, in the test with MCF7 breast, in the test with HOP-62 NSCLC, in the test with NCI-H226 lung, in the test with SF-268 CNS and in the test with SF-539 CNS was > 100 µM in each case. The TGI in the test with UO-31 renal, with EKVX NSCLC and in the test on SK-MEL-2 melanoma was > 100 µM throughout.
